Literature values, collected in patent US8273371B2, “Crystalline mesoporous oxide based materials useful for the fixation and controlled release of drugs” (priority 2003, dated 2012).
Where “and” joins values, the source holds several entries; their conditions need not be identical. Equal values may be shown once. Values belong to the molecule of their own block, whether it stands above or below them.

Columns and labels:
[1] = not given; remark: listed apart in the source
[2] = ibuprofen loaded on mesoporous oxide material
[3] = from 50° C. to 130° C.
[4] = capsules with granulate of drug, surfactants, cyclodextrin, Avicel PH 101 and Primojel

solubility in water: virtually insoluble in water
Compound: CC/C(=C(/CC)c1ccc(O)cc1)c1ccc(O)cc1 [diethylstilbestrol]

oral bioavailability [1]: good oral bioavailability
Compound: CS(=O)(=O)c1ccc([C@@H](O)[C@@H](CF)NC(=O)C(Cl)Cl)cc1 [florfenicol, D-(threo)-1-p-methylsulfonyl phenyl-2-dichloroacetamido-3-fluoro-1-propanol]

drug release after 20 hours ([2]; after 20 hours): 60% | drug release after 24 hours ([2]; after 24 hours): 55% and 68% | maximum release at the third day ([2]; third day): 80%
Compound: CC(C)Cc1ccc(C(C)C(=O)O)cc1 (centres unmarked) [ibuprofen]

solubility in supercritical carbon dioxide [3]: relatively poor
Compound: CCC(C)n1ncn(-c2ccc(N3CCN(c4ccc(OCC5COC(Cn6cncn6)(c6ccc(Cl)cc6Cl)O5)cc4)CC3)cc2)c1=O (centres unmarked) [itraconazole]

water-solubility (in water): less than 0.01 mg/ml | drug release within 45 minutes [4]: 90%
Compound: CC(C)(C)c1ccc(C(O)CCCN2CCC(C(O)(c3ccccc3)c3ccccc3)CC2)cc1 (centres unmarked) [terfenadine]
